Laboratory results reported in ChEMBL document CHEMBL1201862, “PubChem BioAssay data set” (2004).
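Compound exposure: 48 hours, 5 concentrations, 96-well plates. GI50 marks 50% less growth.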 Calls of active or inactive are those of the source. Rule as the data show it: active = GI50 up to about 1.1 µM and inactive = higher.

What was measured:
Experiment in all cases: NCI anticancer screen, dose series, 48 h
A498 = tested on: A498
OVCAR-5 = tested on: OVCAR-5
DU-145 = tested on: DU-145
HCC 2998 = tested on: HCC 2998
HOP-62 = tested on: HOP-62
MDA-MB-435 = tested on: MDA-MB-435
SK-MEL-28 = tested on: SK-MEL-28
SNB-75 = tested on: SNB-75
SK-MEL-2 = tested on: SK-MEL-2
NCI-H522 = tested on: NCI-H522
OVCAR-4 = tested on: OVCAR-4
KM12 = tested on: KM12
HL-60 = tested on: HL-60
PC-3 = tested on: PC-3
K562 = tested on: K562
MDA-MB-231 = tested on: MDA-MB-231
HCT-15 = tested on: HCT-15
SN12C = tested on: SN12C
SK-OV-3 = tested on: SK-OV-3
786-0 = tested on: 786-0

SMILES | GI50 (A498) | GI50 (OVCAR-5) | GI50 (DU-145) | GI50 (HCC 2998) | GI50 (HOP-62) | GI50 (MDA-MB-435) | GI50 (SK-MEL-28) | GI50 (SNB-75) | GI50 (SK-MEL-2) | GI50 (NCI-H522) | GI50 (OVCAR-4) | GI50 (KM12) | GI50 (HL-60) | GI50 (PC-3) | GI50 (K562) | GI50 (MDA-MB-231) | GI50 (HCT-15) [µM] | GI50 (SN12C) | GI50 (SK-OV-3) | GI50 (786-0)
O=C(NCCCNC(=O)c1ccc2c(O)c(O)ccc2c1)c1ccc2c(O)c(O)ccc2c1 | > 48.3 µM (inactive) | 29.1 µM (inactive) | 71.1 µM (inactive) | > 60.4 µM (inactive) | 21.2 µM (inactive) | 15.1 µM (inactive) | 97.9 µM (inactive) | 17.1 µM (inactive) | 35.3 µM (inactive) | 23.8 µM (inactive) | 57.5 µM (inactive) | 18.3 µM (inactive) | 6.32 µM (inactive) | 47.1 µM (inactive) | 19.1 µM (inactive) | 29.6 µM (inactive) | 27.6 | 22.4 µM (inactive) | > 100 µM (inactive) | 23.9 µM (inactive)
COc1nc(OC)nc(-c2cccc(F)c2)n1 | 19.1 µM (inactive) | 11.5 µM (inactive) | 13.2 µM (inactive) | 13.4 µM (inactive) | 20.4 µM (inactive) | 15 µM (inactive) | 19 µM (inactive) | 21.2 µM (inactive) | 18.8 µM (inactive) | 18.7 µM (inactive) | 15.7 µM (inactive) | 15.7 µM (inactive) | 24.3 µM (inactive) | 19.3 µM (inactive) | 18.1 µM (inactive) | 14.5 µM (inactive) | 13.7 | 16.2 µM (inactive) | 15.9 µM (inactive) | 19 µM (inactive)
CCCCCCCCCCCCCC(=O)N(CCCCCCCCC)CC(O)C(O)C(OC1OC(CO)C(O)C(O)C1O)C(O)CO (stereo not given) | 21.2 µM (inactive) | 32.9 µM (inactive) | 16.5 µM (inactive) | 18.5 µM (inactive) | 24.6 µM (inactive) | 19.8 µM (inactive) | 18.1 µM (inactive) | 19.5 µM (inactive) | 24.6 µM (inactive) | 23 µM (inactive) | 24 µM (inactive) | 17.7 µM (inactive) | 23.3 µM (inactive) | 21.8 µM (inactive) | 19.9 µM (inactive) | 20.7 µM (inactive) | 23.6 | 19.8 µM (inactive) | 14.7 µM (inactive) | 17.1 µM (inactive)
COc1ccc(/N=C(/SS/C(=N/c2ccc(OC)cc2)c2ccc([N+](=O)[O-])o2)c2ccc([N+](=O)[O-])o2)cc1 | 12.4 µM (inactive) | 2.2 µM (inactive) | 1.41 µM (inactive) | 1.32 µM (inactive) | 1.94 µM (inactive) | 1.59 µM (inactive) | 2.49 µM (inactive) | 1.27 µM (inactive) | 2.08 µM (inactive) | 0.286 µM (active) | 1.42 µM (inactive) | 1.14 µM (inactive) | 1.69 µM (inactive) | 0.838 µM (active) | 1.19 µM (inactive) | 2.77 µM (inactive) | 0.489 | 1.95 µM (inactive) | 2.79 µM (inactive) | 0.719 µM (active)
CC1(C)S[C@H](CN)N[C@H]1C(=O)OC(c1ccccc1)c1ccccc1 | 20 µM (inactive) | 60.8 µM (inactive) | > 100 µM (inactive) | 18.6 µM (inactive) | 49.9 µM (inactive) | 30.3 µM (inactive) | 56.5 µM (inactive) | 84.3 µM (inactive) | 27.7 µM (inactive) | 31.9 µM (inactive) | 27.3 µM (inactive) | 38.5 µM (inactive) | 16.7 µM (inactive) | 25.5 µM (inactive) | 22.9 µM (inactive) | 35.2 µM (inactive) | 36.1 | 32.4 µM (inactive) | 78.3 µM (inactive) | 48.5 µM (inactive)
CN(O)C(=O)c1cccc(Cl)c1 | > 100 µM (inactive) | > 100 µM (inactive) | > 100 µM (inactive) | > 100 µM (inactive) | > 100 µM (inactive) | > 100 µM (inactive) | > 100 µM (inactive) | > 100 µM (inactive) | > 100 µM (inactive) | > 100 µM (inactive) | > 100 µM (inactive) | > 100 µM (inactive) | 10.2 µM (inactive) | > 100 µM (inactive) | > 100 µM (inactive) | > 100 µM (inactive) | 56.1 | > 100 µM (inactive) | > 100 µM (inactive) | > 100 µM (inactive)
COc1ccc2nc3ccc(OC)cc3c(SCc3ccc([N+](=O)[O-])cc3)c2c1 | > 100 µM (inactive) | > 100 µM (inactive) | > 100 µM (inactive) | > 100 µM (inactive) | 78.9 µM (inactive) | > 100 µM (inactive) | > 100 µM (inactive) | 37.1 µM (inactive) | > 100 µM (inactive) | 17.3 µM (inactive) | 19 µM (inactive) | > 100 µM (inactive) | > 100 µM (inactive) | 68.2 µM (inactive) | > 100 µM (inactive) | 39.2 µM (inactive) | > 100 | > 100 µM (inactive) | > 100 µM (inactive) | 24.7 µM (inactive)
